From paper PMC2631173 (Chemistry & biology, 2008)

Biological target: cellular retinoic acid-binding protein I (CRABP I), CPG variant (Mus musculus, UniProt P62965, R132Q)
Test: fluorescence equilibrium titration of […] FlAsH with purified protein, […] EDT

cellular retinoic acid-binding protein I (CRABP I), CPG variant, sequence (P62965 2-137 R132Q): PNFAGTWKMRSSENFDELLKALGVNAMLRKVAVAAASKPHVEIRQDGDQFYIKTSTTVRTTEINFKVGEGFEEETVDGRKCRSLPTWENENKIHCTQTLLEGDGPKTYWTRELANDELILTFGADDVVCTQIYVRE

## O=C1OC2(c3ccccc31)c1ccc(O)c([As]3SCCS3)c1Oc1c2ccc(O)c1[As]1SCCS1 [FlAsH]
  Kd: 400 nM
